Key:
VEGFR2 = target: T1, VEGFR2 (Homo sapiens, UniProt P35968); test: VEGFR2 cell-based assay (phospho-VEGFR2 ELISA, transfected CHO cells); conditions: compound at 100 nM, read-out: % VEGFR2 kinase activity remains
T1 construct: expressed in transfected cells; host or cells: CHO cells, pcDNA3.1 plasmid
Summary of the method: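 Serum-starved CHO cells transfected with full-length VEGFR2 treated 2 h with compound (0.5–500 nM), then stimulated with 20% FBS. Lysates analyzed by ELISA for phospho- and total VEGFR2 using streptavidin-HRP chemiluminescence.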

PDGFRβ = target: T2, PDGFRβ (Homo sapiens, UniProt P09619); test: PDGFRβ cell-based assay (phospho-PDGFRβ ELISA, transfected CHO cells); conditions: compound at 100 nM, read-out: % PDGFRβ kinase activity remains
T2 construct: expressed in transfected cells; host or cells: CHO cells, pcDNA3.1 plasmid
Summary of the method: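 CHO cells transiently transfected with full-length human PDGFRβ, serum-starved overnight in DMEM, then treated 2 h with compound (0.5–500 nM) before 20% FBS stimulation. Lysates of ~5×10^5 cells analysed by sandwich ELISA for phospho- and total PDGFRβ with streptavidin-HRP chemiluminescent detection.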

[1] = test system: BEL-7404 human hepatocellular carcinoma; test: In vivo anti-tumor efficacy, BEL-7404 xenograft; conditions: Liver cancer BEL-7404, nu/nu Balb/c mice, 50 mg/kg oral once per day, n = 2 × 3
Protocol: Female (nu/nu) Balb/c athymic mice at 4-6 weeks of age were injected subcutaneously (s.c.) with MDA-MB-231 human breast cancer cells, A549 human non-small cell lung cancer cells, U87-MG human glioblastoma cells, PC-3 human prostate cancer cells, HT-29 human colon cancer, BEL-7404 human hepatocellular carcinoma, or MKN-45 human gastric cancer cells (ATCC, 5×10^6 cells suspended in 100 μl DMEM medium). Treatment was initiated after the tumor mass grown from s.c. implanted tumor cells reached a median volume of 200-400 mm^3. Mice were randomized into groups with three in each group for small-sample efficacy tests such that the median tumor volume is nearly equal among all groups. […] Tumor volumes were assessed at least twice weekly by caliper measurement from the start of treatment. Tumor volume was calculated using the formula ½×L×W^2 (L: length of tumor's long axis, W: length of tumor's short axis). […]
The efficacy of compounds in reducing tumor growth was assessed by the index Tumor Growth Inhibition (TGI). TGI for a given treatment period was calculated using the group mean tumor volumes according to the formula: TGI=100×(VVehicle—group−VTreatment—group)÷VVehicle—group wherein VVehicle—group represents the mean tumor volume for the group treated with vehicle and VTreatment—group represents the mean tumor volume of the group treated with a compound.

c-Kit = target: T3, c-Kit (Homo sapiens, UniProt P10721); test: KINOMEscan competition binding assay, c-Kit; conditions: compound at 100 nM; lower number indicates stronger hit
T3 construct: purchased KINOMEscan service (Ambit Biosciences, San Diego)
Protocol: A standard competition binding assay can be used to test the ability of a compound of this invention on competing with both intended and unintended kinases in vitro. To screen a compound against a large number of human kinases, a competition binding assay with an active-site dependent binding technology was performed by KINOMEscan service (Ambit Biosciences, San Diego, Cal., USA). Three components were combined in this assay—DNA-tagged kinase, immobilized ligand, and the test compound. The ability of the test compound to compete with the immobilized ligand was measured by quantitative PCR of the DNA of the DNA tag. A number of the compounds of this invention were screened at the concentration of 100 nM by this binding assay, and the results were reported as “% Ctrl,” and the lower number indicates stronger “hit” in this matrix.

T1 sequence (P35968 20-1356, species assumed): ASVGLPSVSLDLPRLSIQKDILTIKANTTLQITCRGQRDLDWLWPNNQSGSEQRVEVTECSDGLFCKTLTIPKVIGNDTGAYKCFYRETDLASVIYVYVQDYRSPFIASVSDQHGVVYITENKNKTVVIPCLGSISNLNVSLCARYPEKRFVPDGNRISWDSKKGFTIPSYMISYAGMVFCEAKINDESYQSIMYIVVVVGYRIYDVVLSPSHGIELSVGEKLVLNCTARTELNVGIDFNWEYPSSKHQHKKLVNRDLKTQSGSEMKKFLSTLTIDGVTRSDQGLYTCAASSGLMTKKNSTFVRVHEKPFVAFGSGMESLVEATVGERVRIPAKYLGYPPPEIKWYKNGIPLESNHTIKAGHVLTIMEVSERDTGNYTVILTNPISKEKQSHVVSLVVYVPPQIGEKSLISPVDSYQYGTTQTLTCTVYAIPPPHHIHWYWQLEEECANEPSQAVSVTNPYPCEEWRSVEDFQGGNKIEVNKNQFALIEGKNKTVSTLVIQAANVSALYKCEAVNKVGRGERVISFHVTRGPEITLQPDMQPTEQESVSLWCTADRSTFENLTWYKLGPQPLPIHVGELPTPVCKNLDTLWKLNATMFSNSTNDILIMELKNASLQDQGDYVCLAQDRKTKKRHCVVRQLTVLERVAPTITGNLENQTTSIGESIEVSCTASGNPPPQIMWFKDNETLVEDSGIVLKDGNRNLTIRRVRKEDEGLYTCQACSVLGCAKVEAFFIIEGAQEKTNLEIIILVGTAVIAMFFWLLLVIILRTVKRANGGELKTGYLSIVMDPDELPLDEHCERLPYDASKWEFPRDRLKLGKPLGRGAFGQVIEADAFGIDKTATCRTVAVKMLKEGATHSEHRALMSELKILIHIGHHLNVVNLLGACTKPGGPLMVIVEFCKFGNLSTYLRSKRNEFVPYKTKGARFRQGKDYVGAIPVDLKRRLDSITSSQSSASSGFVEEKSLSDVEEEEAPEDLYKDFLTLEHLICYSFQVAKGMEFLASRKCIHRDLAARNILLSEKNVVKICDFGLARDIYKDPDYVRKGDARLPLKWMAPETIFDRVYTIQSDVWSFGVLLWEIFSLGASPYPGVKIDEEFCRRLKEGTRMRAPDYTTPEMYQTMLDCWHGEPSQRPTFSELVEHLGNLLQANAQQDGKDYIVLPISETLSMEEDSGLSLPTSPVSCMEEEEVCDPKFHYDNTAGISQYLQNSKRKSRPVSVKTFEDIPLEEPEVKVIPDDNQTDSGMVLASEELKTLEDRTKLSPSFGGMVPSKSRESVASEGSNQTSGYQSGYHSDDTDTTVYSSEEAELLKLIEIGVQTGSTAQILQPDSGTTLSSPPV
T3 sequence (P10721 26-976): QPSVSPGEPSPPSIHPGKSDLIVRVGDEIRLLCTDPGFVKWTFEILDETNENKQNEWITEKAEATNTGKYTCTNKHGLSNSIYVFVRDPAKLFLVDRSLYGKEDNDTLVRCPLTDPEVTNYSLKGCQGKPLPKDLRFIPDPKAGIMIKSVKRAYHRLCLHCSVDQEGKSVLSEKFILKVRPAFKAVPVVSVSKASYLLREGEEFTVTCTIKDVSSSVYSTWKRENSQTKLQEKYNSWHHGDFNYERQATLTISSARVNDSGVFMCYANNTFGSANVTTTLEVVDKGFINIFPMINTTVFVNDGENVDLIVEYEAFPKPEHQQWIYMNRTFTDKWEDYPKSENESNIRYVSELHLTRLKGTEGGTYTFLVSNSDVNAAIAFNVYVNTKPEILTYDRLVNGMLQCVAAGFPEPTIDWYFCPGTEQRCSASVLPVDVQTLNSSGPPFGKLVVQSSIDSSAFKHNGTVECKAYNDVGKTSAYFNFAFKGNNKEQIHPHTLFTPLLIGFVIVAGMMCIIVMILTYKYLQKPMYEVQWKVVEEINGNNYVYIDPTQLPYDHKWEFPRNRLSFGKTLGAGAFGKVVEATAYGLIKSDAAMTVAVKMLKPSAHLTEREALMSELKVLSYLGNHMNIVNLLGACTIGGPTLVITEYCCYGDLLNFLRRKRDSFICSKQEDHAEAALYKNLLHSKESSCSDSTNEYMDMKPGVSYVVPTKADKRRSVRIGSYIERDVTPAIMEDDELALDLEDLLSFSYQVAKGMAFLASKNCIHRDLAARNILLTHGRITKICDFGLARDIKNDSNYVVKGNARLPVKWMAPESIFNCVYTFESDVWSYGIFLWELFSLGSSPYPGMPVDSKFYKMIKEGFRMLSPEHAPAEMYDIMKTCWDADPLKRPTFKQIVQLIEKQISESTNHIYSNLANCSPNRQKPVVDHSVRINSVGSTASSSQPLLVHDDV
T2 sequence (P09619 33-1106, species assumed): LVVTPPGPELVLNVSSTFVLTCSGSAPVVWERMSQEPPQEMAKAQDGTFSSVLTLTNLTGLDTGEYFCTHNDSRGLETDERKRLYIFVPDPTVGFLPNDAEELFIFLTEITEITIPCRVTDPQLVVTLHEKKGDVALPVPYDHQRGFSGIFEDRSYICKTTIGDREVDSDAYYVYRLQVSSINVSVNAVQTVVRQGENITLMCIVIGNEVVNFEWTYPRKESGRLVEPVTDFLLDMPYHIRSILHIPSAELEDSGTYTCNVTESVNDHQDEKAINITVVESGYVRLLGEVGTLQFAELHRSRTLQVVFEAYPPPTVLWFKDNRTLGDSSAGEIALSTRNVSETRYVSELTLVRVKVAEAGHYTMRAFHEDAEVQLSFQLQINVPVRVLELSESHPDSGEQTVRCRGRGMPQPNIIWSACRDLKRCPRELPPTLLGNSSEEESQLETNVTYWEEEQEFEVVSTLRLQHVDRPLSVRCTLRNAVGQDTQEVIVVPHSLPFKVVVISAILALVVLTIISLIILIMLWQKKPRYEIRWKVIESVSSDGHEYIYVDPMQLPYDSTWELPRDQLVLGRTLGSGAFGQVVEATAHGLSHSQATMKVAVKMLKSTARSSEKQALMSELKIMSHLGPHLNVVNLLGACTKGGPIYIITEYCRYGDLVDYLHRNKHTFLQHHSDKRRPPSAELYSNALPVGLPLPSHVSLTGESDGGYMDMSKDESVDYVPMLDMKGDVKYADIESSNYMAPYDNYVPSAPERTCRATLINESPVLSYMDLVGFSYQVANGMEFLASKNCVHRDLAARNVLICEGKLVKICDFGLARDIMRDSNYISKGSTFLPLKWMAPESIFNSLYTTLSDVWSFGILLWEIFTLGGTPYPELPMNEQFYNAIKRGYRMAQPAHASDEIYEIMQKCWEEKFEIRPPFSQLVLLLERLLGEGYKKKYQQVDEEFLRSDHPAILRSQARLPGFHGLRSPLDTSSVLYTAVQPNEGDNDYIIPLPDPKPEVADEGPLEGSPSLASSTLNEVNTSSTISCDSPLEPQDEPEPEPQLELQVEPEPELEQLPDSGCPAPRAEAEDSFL

| SMILES | remaining activity at 0.1 µM (VEGFR2) | remaining activity at 0.1 µM (PDGFRβ) | Tumor Growth Inhibition (TGI) [1] | c-Kit % Ctrl (c-Kit) |
| --- | --- | --- | --- | --- |
| Cl.O=C(Nc1cccc(C(F)(F)F)c1)Nc1cccc2c1ccn2Cc1ccnc2[nH]ccc12 [Example 51, 1-(3-Trifluoromethylphenyl)-3-[1-(1H-pyrrolo[2,3-b]pyridin-4-ylmethyl)-1H-indol-4-yl]urea hydrochloride] | < 70% | ≥ 70% | – | – |
| Cl.O=C(Nc1cc(Cl)ccc1F)Nc1cccc2c1ccn2Cc1ccnc2[nH]ccc12 [Example 56, 1-(2-Fluoro-5-chlorophenyl)-3-[1-(1H-pyrrolo[2,3-b]pyridin-4-ylmethyl)-1H-indol-4-yl]urea hydrochloride] | ≥ 70% | – | A (the TGI is greater or equal to 50%) | 3.8 % Ctrl |

From patent publication US8648086B2, “5,6-bicyclic heteroaryl-containing urea compounds as kinase inhibitors” (Ascepion Pharmaceuticals, Inc., priority 2009, dated 2014)
